≈ marks a conversion by molar mass, not a printed value. Like-named read-outs stand apart in the source and are kept apart here.

From patent US6075132A, “Ursodeoxycholic acid derivatives and methods for producing them” (Bio Research Corporation of Yokohama, priority 1998, dated 2000) come the findings set out here.

The data set in a line: Solubility in water (membrane-filtered supernatant after 18 h stirring; phenol-sulfuric acid method and HPLC). The note with it: for solubility in water relative to that of ursodeoxycholic acid: 1080 min. It is filed as physicochemical. The procedure:
20 mg of the ursodeoxycholic acid derivative prepared above and shown in Table 1 below was sampled, to which was added 0.2 ml of water and stirred for 18 hours. The resulting supernatant was taken out through filtration with a membrane filter (0.45μm), and analyzed according to the phenol-sulfuric acid method and through HPLC. The condition for HPLC was as follows:
Column: YMC's YMC-Pack ODS-AQ-303 (4.6×250 mm)
Detector: Photo-diode array detector (202 nm)
Amount Charged into Column: 20 μl

Broadly, the solubility is the concentration that dissolves in the medium under given conditions. Regarding `C[C@H](CCC(=O)O)[C@H]1CC[C@H]2[C@@H]3[C@@H](OC(=O)COC4O[C@H](CO)[C@@H](O)[C@H](O)[C@H]4O)C[C@@H]4C[C@H](OC(=O)COC5O[C@H](CO)[C@@H](O)[C@H](O)[C@H]5O)CC[C@]4(C)[C@H]3CC[C@]12C` (stereo partly drawn) [3,7-GLG-ursodeoxycholic acid, diglycosyloxyacetyl-3,7-ursodeoxycholic acid], the “solubility in water relative to that of ursodeoxycholic acid” value was “about 2500 times”. Also, where the note is “water”, the concentration in solution (solubility at 18 h) came to 95000 µg/mL (≈ 114000 µM). For the same compound, the “Solubility in Water” value (water, 18 h) came out at 95000 µg/mL (≈ 114000 µM).

With `C[C@H](CCC(=O)OCCOC1O[C@H](CO)[C@@H](O)[C@H](O)[C@H]1O)[C@H]1CC[C@H]2[C@@H]3[C@@H](O)C[C@@H]4C[C@H](O)CC[C@]4(C)[C@H]3CC[C@]12C` (stereo partly drawn) [24-GLG-ursodeoxycholic acid, glycosyloxyethyl-24-ursodeoxycholic acid], the “solubility in water relative to that of ursodeoxycholic acid” value is “about 13 times”. For the same compound, for the setting “water”, the solubility at 18 h came to 511 µg/mL (≈ 853 µM).

Take `C[C@H](CCC(=O)O)[C@H]1CC[C@H]2[C@@H]3[C@@H](O)C[C@@H]4C[C@H](O)CC[C@]4(C)[C@H]3CC[C@]12C` [Ursodeoxycholic acid, ursodeoxycholic acid]: for the setting “water, stirred for 18 hours, read-out: Solubility in Water”, the solubility at 18 h is 38 µg/mL (≈ 96.8 µM).
